Results on eleven compounds are retold here after US12527797B2, “Isochromene derivatives as phosphoinositide 3-kinases inhibitors” (CHIESI FARMACEUTICI S.P.A., priority 2019, dated 2026).

Where two headings read alike, the source gives them in different places.

Data set [1] deals with T1, PI3Kδ (Homo sapiens, UniProt O00329).
T1 construct: purchased Millipore Ltd (Billerica, MA)
Conditions: cell free assay; reproduced from WO2015091685; read-out: PI3K delta inhibition; cited from earlier work.

For the next data set, the target named is T2, PI3Kγ (Homo sapiens, UniProt P48736).
T2 construct: purchased Millipore Ltd (Billerica, MA)
Conditions: cell free assay; reproduced from WO2015091685; read-out: PI3K gamma inhibition; cited from earlier work.

A further data set has as its target T3, PI3Kα (Homo sapiens, UniProt P42336).
T3 construct: purchased Millipore Ltd (Billerica, MA)
Conditions: cell free assay; reproduced from WO2015091685; read-out: PI3K alpha inhibition; cited from earlier work.

Another data set has as its target T4, PI3Kβ (Homo sapiens, UniProt P42338).
T4 construct: purchased Millipore Ltd (Billerica, MA)
To be noted: cell free assay; reproduced from WO2015091685; read-out: PI3K beta inhibition; cited from earlier work.

The target of data set [2] is T1, PI3Kδ. The data set is described as follows: PI3K enzyme inhibitory activity in the cell free assay (ADP-Glo Kinase Assay). Type of data set: biochemical. To be noted: cell free enzymatic assay; for IC50: ATP 80 μM, read-out: Enzymatic Delta IC50; for Ki: read-out: Enzymatic Delta Ki. (In general: In ADP-Glo the light output rises with the ADP produced.)
Data set [3] has as its system PI3Kδ-AKT pathway endogenously expressed on THP-1 cells. The data set is described as follows: PI3Kδ enzyme inhibitory activity in the THP-1 assay (M-CSF stimulated pAKT, HTRF). It counts as cell-based. To be noted: for IC50: Homo sapiens, THP-1 cells, M-CSF 2.5 ng/mL, pAKT Ser473, read-out: THP-1 IC50 nM Cellular; for Delta cell drop-off (Cellular/enzymatic activity = THP-1 IC50 nM/Delta Ki nM): ratio THP-1 IC50 / Delta Ki. On the technique in general: TR-FRET usually uses a lanthanide donor and a delayed reading to cut background.

Data set [4] has as its system Ovalbumin (OVA) induced lung eosinophilia. Put plainly: Rat model of ovalbumin (OVA) induced lung eosinophilia (WET administration, saline suspension i.t.). Type of data set: in vivo, Brown Norway rats.
A short description of a further data set: Lung retention. Conditions: reason why not tested in OVA model.
[5] abbreviates: administered 12 h before OVA challenge, 0.1 μmol/kg (ED80) for compounds of the invention.

T1 sequence (O00329 whole entry): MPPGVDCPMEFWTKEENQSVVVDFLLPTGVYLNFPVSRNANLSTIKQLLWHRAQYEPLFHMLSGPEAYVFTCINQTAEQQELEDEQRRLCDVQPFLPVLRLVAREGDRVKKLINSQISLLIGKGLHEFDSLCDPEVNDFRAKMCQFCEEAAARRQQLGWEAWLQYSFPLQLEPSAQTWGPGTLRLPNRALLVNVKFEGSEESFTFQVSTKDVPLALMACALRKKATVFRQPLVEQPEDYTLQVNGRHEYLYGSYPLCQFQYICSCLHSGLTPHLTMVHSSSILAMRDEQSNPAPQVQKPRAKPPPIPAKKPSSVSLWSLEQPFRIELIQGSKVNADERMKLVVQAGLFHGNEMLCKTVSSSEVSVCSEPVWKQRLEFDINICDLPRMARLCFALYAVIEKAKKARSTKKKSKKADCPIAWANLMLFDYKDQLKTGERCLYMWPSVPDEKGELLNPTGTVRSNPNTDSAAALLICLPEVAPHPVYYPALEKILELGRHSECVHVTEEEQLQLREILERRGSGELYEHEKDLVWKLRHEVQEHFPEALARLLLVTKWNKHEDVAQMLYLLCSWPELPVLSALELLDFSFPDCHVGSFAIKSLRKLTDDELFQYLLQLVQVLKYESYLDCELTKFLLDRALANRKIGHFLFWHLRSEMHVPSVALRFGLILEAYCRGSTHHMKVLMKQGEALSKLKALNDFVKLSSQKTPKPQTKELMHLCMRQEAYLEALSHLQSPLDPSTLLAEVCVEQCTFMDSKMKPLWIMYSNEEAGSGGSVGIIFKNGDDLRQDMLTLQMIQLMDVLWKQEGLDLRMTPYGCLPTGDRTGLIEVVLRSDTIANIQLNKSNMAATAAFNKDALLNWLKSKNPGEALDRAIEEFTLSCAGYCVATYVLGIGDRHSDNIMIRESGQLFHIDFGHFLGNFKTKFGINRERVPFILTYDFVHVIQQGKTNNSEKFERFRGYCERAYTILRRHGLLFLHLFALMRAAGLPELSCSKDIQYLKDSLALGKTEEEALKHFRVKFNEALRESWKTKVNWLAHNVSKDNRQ
T1 sequence (P27986 whole entry partner): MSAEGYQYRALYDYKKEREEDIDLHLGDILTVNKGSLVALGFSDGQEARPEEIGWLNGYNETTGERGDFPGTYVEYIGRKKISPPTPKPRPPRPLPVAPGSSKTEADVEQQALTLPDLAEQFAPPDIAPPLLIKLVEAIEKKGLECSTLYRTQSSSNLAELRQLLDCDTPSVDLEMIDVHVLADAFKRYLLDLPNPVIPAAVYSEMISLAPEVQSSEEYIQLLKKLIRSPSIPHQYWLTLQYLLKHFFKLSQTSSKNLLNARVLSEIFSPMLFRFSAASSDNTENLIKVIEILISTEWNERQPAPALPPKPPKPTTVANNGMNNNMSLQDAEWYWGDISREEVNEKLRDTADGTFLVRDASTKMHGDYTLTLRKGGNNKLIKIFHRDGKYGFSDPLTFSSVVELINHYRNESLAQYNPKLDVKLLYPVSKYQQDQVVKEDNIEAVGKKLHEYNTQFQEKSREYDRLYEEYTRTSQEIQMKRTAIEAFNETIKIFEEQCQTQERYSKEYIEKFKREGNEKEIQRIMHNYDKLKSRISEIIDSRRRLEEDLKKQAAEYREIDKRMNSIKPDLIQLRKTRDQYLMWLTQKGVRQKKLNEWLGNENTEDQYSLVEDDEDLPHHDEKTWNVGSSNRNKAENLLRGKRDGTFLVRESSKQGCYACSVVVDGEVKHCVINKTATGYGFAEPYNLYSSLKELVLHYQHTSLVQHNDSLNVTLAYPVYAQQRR
T3 sequence (P42336 whole entry): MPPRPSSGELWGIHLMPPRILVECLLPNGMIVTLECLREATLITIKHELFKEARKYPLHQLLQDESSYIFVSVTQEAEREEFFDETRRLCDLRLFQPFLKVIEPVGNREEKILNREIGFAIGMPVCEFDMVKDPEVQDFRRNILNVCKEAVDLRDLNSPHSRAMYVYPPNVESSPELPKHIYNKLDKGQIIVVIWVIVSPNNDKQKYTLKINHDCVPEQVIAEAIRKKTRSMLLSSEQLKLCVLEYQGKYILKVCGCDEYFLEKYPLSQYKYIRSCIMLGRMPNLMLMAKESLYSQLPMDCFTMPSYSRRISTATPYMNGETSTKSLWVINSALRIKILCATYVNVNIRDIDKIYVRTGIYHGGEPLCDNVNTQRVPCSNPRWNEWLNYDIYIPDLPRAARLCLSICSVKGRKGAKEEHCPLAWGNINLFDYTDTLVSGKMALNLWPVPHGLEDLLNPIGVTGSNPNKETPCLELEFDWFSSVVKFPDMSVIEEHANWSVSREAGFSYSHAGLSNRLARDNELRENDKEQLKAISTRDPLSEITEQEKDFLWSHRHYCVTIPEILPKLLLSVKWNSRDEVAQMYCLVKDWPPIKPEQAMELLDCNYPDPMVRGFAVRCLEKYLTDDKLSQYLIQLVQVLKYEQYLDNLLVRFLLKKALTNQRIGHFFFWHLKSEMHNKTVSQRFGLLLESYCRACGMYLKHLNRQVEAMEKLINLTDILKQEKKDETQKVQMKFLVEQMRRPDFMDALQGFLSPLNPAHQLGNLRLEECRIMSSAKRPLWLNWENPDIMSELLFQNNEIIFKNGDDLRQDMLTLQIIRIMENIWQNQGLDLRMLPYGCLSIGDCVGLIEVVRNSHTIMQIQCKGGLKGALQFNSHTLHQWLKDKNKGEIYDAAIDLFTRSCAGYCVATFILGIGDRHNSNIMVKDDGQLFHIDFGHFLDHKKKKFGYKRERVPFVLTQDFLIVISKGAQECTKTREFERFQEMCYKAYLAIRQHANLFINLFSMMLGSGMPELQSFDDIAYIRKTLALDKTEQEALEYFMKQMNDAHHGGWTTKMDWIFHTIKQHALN
T2 sequence (P48736 whole entry): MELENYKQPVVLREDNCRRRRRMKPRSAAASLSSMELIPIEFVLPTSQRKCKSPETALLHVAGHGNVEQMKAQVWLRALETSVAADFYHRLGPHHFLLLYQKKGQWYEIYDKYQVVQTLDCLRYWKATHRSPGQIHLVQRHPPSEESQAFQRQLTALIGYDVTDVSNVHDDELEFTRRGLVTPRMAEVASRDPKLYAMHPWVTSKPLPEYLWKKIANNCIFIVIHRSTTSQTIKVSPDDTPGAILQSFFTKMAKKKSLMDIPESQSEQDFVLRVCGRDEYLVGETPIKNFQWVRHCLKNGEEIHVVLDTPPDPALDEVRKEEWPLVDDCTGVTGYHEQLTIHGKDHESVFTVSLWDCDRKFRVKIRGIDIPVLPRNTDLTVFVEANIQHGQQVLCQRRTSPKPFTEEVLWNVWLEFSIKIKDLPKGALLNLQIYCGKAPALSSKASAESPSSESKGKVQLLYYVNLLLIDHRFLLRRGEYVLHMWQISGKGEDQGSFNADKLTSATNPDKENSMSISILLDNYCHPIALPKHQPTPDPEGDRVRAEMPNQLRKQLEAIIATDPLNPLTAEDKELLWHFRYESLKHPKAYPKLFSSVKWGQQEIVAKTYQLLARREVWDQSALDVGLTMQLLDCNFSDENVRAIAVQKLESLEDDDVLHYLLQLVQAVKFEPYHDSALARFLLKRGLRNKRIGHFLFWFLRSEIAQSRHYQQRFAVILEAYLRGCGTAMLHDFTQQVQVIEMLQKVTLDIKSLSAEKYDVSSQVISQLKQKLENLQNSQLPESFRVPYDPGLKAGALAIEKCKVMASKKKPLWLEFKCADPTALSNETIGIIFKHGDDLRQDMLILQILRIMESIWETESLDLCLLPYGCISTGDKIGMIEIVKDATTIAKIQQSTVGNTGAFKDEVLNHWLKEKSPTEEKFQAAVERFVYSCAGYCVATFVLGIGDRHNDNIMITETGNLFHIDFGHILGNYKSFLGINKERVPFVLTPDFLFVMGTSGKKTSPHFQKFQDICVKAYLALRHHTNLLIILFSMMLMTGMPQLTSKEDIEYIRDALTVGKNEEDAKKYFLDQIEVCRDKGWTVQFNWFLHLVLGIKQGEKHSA
T4 sequence (P42338 whole entry): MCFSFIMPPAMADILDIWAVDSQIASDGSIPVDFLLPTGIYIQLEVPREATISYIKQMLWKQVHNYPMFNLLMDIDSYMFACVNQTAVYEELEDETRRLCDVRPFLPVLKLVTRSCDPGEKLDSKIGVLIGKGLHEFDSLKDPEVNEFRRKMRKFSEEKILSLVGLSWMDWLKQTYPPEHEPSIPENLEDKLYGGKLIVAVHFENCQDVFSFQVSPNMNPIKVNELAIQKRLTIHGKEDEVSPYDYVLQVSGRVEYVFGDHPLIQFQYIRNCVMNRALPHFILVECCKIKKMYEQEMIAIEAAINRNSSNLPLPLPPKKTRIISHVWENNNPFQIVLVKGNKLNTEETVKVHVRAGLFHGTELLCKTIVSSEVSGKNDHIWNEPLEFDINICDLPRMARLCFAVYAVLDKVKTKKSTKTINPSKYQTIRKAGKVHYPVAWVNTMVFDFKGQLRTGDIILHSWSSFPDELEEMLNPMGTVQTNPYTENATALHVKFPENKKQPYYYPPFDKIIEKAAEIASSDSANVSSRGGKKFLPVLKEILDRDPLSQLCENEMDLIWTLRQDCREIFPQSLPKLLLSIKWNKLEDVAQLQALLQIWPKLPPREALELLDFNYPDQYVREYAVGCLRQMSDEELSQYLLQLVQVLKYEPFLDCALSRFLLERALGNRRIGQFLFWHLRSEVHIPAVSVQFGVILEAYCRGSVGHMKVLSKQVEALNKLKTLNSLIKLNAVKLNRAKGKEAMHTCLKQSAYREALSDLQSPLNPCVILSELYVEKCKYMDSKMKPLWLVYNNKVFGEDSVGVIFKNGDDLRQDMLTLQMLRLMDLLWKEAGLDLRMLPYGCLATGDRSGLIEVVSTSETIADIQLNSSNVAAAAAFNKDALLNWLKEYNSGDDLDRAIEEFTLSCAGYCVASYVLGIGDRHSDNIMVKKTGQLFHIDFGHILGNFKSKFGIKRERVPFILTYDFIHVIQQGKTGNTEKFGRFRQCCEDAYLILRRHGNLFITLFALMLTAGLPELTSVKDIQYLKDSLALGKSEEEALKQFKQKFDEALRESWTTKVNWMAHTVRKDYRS

Turning to `CC(c1oc(=O)c2ccccc2c1-c1cccc(CN2CCN(C)CC2)c1)n1nc(-c2cc(O)cc(F)c2)c2c(N)ncnc21` (racemic) [Example 142, 3-(1-(4-amino-3-(3-fluoro-5-hydroxyphenyl)-1H-pyrazolo[3,4-d]pyrimidin-1-yl)ethyl)-4-(3-((4-methylpiperazin-1-yl)methyl)phenyl)-1H-isochromen-1-one], the IC50 at PI3Kδ [1] is < 10 nM; on PI3Kγ, > 1000 nM; at PI3Kα, > 1000 nM; on PI3Kβ, > 1000 nM.
As for `CC(c1oc(=O)c2ccccc2c1-c1cccc(CN2CCN(C)CC2)c1)n1nc(-c2cc(O)cc(F)c2)c2c(N)ncnc21` (single isomer, unassigned) [Comparative example 1, 3-(1-(4-amino-3-(3-fluoro-5-hydroxyphenyl)-1H-pyrazolo[3,4-d]pyrimidin-1-yl)ethyl)-4-(3-((4-methylpiperazin-1-yl)methyl)phenyl)-1H-isochromen-1-one, reference compound], on PI3Kδ [2], the IC50 stood at 2.2 nM and the Ki was 1.1 nM. Moreover, in data set [3], the IC50 was 1.8 nM and the “Delta cell drop-off (Cellular/enzymatic activity = THP-1 IC50 nM/Delta Ki nM)” value stood at 1.6. The “% of inhibition (eosinophil recruitment in BALF)” value (shortened to “% of inhibition”) in data set [4] (setting [5]) is listed as 0% (Not durable).
For `CC(c1oc(=O)c2ccccc2c1-c1ccccc1)n1nc(-c2cncc(O)c2)c2c(N)ncnc21` (single isomer, unassigned) [Comparative example 2, reference compound], in the data set “Lung retention”, the lung retention result is listed as “Compound not even tested in OVA model for Insufficient lung retention****”. Also, the IC50 in data set [3] amounted to 1.6 nM.
For `CC(c1oc(=O)c2ccccc2c1-c1cccc(CN(C)C)c1)n1nc(-c2cc(O)cc(F)c2)c2c(N)ncnc21` (single isomer, unassigned) [Comparative example 3, reference compound], the IC50 in data set [3] was determined as 1.5 nM. Besides, in data set [4] (administered 2 h before OVA challenge, ns = non-significant), the “% of inhibition” value was 34% ns***.
Regarding `CC(c1oc(=O)c2ccccc2c1-c1cccc(CN2CCN(C)CC2)c1)n1nc(-c2cncc(O)c2)c2c(N)ncnc21` (single isomer, unassigned) [Example 1a, 3-{1-[4-Amino-3-(5-hydroxypyridin-3-yl)-1H-pyrazolo[3,4-d]pyrimidin-1-yl]ethyl}-4-{3-[(4-methylpiperazin-1-yl)methyl]phenyl}-1H-isochromen-1-one], in data set [3], the IC50 was 2.8 nM and the “Delta cell drop-off (Cellular/enzymatic activity = THP-1 IC50 nM/Delta Ki nM)” value worked out at 3.1. In data set [4] (setting [5]), the “% of inhibition” value worked out at 55%.
For `CC(c1oc(=O)c2ccccc2c1-c1cccc(CN(C)C)c1)n1nc(-c2cncc(O)c2)c2c(N)ncnc21` (single isomer, unassigned) [Example 2a, 3-(1-(4-amino-3-(5-hydroxypyridin-3-yl)-1H-pyrazolo[3,4-d]pyrimidin-1-yl)ethyl)-4-(3-((dimethylamino)methyl)phenyl)-1H-isochromen-1-one], in data set [3], the IC50 was found to be 0.6 nM and the “Delta cell drop-off (Cellular/enzymatic activity = THP-1 IC50 nM/Delta Ki nM)” value was found to be 1.2. The “% of inhibition” value in data set [4] (setting [5]) is listed as 57%.
In the case of `CC(c1oc(=O)c2ccccc2c1-c1cccc([C@H]2CCCN2C)c1)n1nc(-c2cncc(O)c2)c2c(N)ncnc21` (single isomer, unassigned) [Example 4a], at PI3Kδ [2], the IC50 amounted to 0.3 nM and the Ki came to 0.1 nM. Further, in data set [3], the IC50 came to 1 nM and the “Delta cell drop-off (Cellular/enzymatic activity = THP-1 IC50 nM/Delta Ki nM)” value is listed as 10.
The corresponding values for `CC(c1oc(=O)c2ccccc2c1-c1ccc(Cl)c(CN(C)C)c1)n1nc(-c2cncc(O)c2)c2c(N)ncnc21` (stereo not drawn) [Example 3, 3-{1-[4-Amino-3-(5-hydroxypyridin-3-yl)-1H-pyrazolo[3,4-d]pyrimidin-1-yl]ethyl}-4-{4-chloro-3-[(dimethylamino)methyl]phenyl}-1H-isochromen-1-one] are 0.7 nM, 0.4 nM, 3.9 nM and 9.7.
In the case of `CC(c1oc(=O)c2ccccc2c1-c1ccc(F)c(CN2CCN(C)CC2)c1)n1nc(-c2cncc(O)c2)c2c(N)ncnc21` (stereo not drawn) [Example 5, 3-{1-[4-Amino-3-(5-hydroxypyridin-3-yl)-1H-pyrazolo[3,4-d]pyrimidin-1-yl]ethyl}-4-{4-fluoro-3-[(4-methylpiperazin-1-yl)methyl]phenyl}-1H-isochromen-1-one], on PI3Kδ [2], the IC50 was determined as 1 nM and the Ki worked out at 0.5 nM. For the same compound, in data set [3], the IC50 was 1.8 nM and the “Delta cell drop-off (Cellular/enzymatic activity = THP-1 IC50 nM/Delta Ki nM)” value came to 3.6.
The corresponding values for `CC(c1oc(=O)c2ccccc2c1-c1cc(F)cc(CN2CCN(C)CC2)c1)n1nc(-c2cncc(O)c2)c2c(N)ncnc21` (stereo not drawn) [Example 6, 3-(1-(4-Amino-3-(5-hydroxypyridin-3-yl)-1H-pyrazolo[3,4-d]pyrimidin-1-yl)ethyl)-4-(3-fluoro-5-((4-methylpiperazin-1-yl)methyl)phenyl)-1H-isochromen-1-one] are 0.8 nM, 0.4 nM, 3 nM and 7.5.
The corresponding values for `CC(c1cccc(-c2c(C(C)n3nc(-c4cncc(O)c4)c4c(N)ncnc43)oc(=O)c3ccccc23)c1)N(C)C` (stereo not drawn) [Example 7, 3-(1-(4-Amino-3-(5-hydroxypyridin-3-yl)-1H-pyrazolo[3,4-d]pyrimidin-1-yl)ethyl)-4-(3-(1-(dimethylamino)ethyl)phenyl)-1H-isochromen-1-one] are 1.6 nM, 0.8 nM, 3.9 nM and 4.9.
